From paper PMC11397024, “Strategic Fluorination to Achieve a Potent, Selective, Metabolically Stable, and Orally Bioavailable Inhibitor of CSNK2” (Molecules, 2024)

What was measured:
Test in all cases: NanoBRET K192
Type in all cases: cell-based
CDK2 + E1 = biological target: T1, CDK2 + E1 (Homo sapiens, UniProt P24941); details: HEK293
T1 construct: purchased Promega (NanoBRET Target Engagement K192 Kinase Selectivity System)
Procedure, shortened: (§1)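 HEK293 cells were transfected overnight with NanoLuc–kinase fusion vectors, then treated for 2 h at 37 °C with compound (added as 100 μM working solution) plus K10 tracer. BRET was read at 450/610 nm after substrate and extracellular inhibitor, and fractional occupancy was calculated against no-compound controls.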

MAP3K11 = biological target: T2, MAP3K11 (Homo sapiens, UniProt Q16584); details: HEK293
T2 construct: purchased Promega (NanoBRET Target Engagement K192 Kinase Selectivity System)
T2 sequence (Q16584 whole entry): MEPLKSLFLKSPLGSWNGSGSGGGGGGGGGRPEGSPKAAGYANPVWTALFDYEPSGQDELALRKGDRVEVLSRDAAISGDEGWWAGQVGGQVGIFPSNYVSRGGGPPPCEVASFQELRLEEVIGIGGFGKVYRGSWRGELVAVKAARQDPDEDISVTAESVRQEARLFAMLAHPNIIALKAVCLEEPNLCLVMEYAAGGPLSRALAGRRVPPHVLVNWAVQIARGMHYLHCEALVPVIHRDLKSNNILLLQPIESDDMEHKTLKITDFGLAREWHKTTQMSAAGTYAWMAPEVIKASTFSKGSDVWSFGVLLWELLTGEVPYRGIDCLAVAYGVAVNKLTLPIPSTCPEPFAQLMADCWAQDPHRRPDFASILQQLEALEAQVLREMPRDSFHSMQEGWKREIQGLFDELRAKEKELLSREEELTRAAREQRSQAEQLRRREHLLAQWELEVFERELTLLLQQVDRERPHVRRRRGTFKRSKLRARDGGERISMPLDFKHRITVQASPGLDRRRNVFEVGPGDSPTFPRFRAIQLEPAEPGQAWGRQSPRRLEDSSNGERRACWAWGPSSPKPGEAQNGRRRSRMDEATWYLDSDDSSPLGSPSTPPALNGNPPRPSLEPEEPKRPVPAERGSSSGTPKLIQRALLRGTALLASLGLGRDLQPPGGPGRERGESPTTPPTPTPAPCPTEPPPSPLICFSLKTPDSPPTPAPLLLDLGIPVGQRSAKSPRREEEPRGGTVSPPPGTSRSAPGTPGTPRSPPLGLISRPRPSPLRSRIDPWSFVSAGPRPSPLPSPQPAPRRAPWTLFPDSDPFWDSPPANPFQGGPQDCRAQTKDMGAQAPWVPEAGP
Procedure, shortened: as §1

STK11 = biological target: T3, STK11 (Homo sapiens, UniProt Q15831); details: HEK293
T3 construct: purchased Promega (NanoBRET Target Engagement K192 Kinase Selectivity System)
Procedure, shortened: as §1

CAMK2A = biological target: T4, CAMK2A (Homo sapiens, UniProt Q9UQM7); details: HEK293
T4 construct: purchased Promega (NanoBRET Target Engagement K192 Kinase Selectivity System)
Procedure, shortened: as §1

IRAK4 = biological target: T5, IRAK4 (Homo sapiens, UniProt Q9NWZ3); details: HEK293
T5 construct: purchased Promega (NanoBRET Target Engagement K192 Kinase Selectivity System)
Procedure, shortened: as §1

MERTK = biological target: T6, MERTK (Homo sapiens, UniProt Q12866); details: HEK293
T6 construct: purchased Promega (NanoBRET Target Engagement K192 Kinase Selectivity System)
Procedure, shortened: as §1

DYRK1B = biological target: T7, DYRK1B (Homo sapiens, UniProt Q9Y463); details: HEK293
T7 construct: purchased Promega (NanoBRET Target Engagement K192 Kinase Selectivity System)
T7 sequence (Q9Y463 whole entry): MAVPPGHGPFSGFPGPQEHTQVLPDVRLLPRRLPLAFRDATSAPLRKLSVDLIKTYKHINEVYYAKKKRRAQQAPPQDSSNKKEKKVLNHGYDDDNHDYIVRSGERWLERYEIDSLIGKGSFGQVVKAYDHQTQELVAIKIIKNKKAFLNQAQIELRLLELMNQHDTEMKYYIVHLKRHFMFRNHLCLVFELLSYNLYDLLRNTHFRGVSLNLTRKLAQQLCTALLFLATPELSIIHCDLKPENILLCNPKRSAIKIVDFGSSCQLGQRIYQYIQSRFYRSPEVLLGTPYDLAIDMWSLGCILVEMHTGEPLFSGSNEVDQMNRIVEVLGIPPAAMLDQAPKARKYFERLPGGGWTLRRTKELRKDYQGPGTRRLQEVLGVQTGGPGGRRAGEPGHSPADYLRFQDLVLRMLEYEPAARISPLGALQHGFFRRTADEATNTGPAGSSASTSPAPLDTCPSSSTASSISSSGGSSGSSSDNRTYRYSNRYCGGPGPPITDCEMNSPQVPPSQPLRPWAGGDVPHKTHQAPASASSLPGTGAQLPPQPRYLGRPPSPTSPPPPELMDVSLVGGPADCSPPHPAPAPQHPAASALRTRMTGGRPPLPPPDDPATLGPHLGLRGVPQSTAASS
Procedure, shortened: as §1

IGF1R = biological target: T8, IGF1R (Homo sapiens, UniProt P08069); details: HEK293
T8 construct: host or cells: HEK293
Procedure, shortened: as §1

ICK = biological target: T9, ICK (Homo sapiens, UniProt Q9UPZ9); details: HEK293
T9 construct: host or cells: HEK293
Procedure, shortened: as §1

ULK3v1 = biological target: T10, ULK3v1 (Homo sapiens, UniProt Q6PHR2); details: HEK293
T10 construct: host or cells: HEK293
T10 sequence (Q6PHR2 whole entry): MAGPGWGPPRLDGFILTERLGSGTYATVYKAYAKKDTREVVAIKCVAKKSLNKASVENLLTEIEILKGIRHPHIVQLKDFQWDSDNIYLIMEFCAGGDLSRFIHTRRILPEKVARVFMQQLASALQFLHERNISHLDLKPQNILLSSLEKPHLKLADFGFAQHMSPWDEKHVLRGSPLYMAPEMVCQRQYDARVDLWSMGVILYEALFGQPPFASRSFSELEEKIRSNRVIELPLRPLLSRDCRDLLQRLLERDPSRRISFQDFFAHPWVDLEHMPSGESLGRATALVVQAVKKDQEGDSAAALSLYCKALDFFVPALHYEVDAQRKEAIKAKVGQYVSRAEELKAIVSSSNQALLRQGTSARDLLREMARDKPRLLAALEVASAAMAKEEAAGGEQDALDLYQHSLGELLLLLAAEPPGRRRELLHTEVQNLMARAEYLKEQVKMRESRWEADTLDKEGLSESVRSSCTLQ
Procedure, shortened: as §1

HIPK3 = biological target: T11, HIPK3 (Homo sapiens, UniProt Q9H422); details: HEK293
T11 construct: purchased Promega (NanoBRET Target Engagement K192 Kinase Selectivity System)
Procedure, shortened: as §1

CDK10 + L2 = biological target: T12, CDK10 + L2 (Homo sapiens, UniProt Q15131); details: HEK293
T12 construct: purchased Promega (NanoBRET Target Engagement K192 Kinase Selectivity System)
T12 sequence (Q15131 whole entry): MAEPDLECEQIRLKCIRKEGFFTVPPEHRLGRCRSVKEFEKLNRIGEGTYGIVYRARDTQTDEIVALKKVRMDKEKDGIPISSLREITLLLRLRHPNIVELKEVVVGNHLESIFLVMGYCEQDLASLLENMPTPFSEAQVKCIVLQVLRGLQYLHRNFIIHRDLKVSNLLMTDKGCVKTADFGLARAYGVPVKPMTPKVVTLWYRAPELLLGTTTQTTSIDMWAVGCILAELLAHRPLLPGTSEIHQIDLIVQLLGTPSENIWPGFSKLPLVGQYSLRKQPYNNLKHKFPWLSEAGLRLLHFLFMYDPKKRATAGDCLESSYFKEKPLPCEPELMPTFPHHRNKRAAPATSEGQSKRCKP
T12 sequence (Q96S94 whole entry partner): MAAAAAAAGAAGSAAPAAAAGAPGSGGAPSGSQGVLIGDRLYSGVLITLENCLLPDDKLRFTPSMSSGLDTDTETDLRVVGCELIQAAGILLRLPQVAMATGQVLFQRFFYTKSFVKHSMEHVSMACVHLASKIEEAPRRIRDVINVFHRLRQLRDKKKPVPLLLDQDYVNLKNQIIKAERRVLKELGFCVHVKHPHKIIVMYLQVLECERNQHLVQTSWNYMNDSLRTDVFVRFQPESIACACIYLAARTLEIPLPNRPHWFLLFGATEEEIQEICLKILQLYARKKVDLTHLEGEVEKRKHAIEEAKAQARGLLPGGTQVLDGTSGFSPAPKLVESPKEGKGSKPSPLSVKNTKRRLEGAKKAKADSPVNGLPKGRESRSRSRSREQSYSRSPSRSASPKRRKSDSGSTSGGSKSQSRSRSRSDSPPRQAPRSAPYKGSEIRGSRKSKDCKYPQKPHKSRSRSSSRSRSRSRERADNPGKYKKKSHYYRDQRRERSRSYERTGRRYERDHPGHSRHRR
Procedure, shortened: as §1

NEK9 = biological target: T13, NEK9 (Homo sapiens, UniProt Q8TD19); details: HEK293
T13 construct: purchased Promega (NanoBRET Target Engagement K192 Kinase Selectivity System)
T13 sequence (Q8TD19 whole entry): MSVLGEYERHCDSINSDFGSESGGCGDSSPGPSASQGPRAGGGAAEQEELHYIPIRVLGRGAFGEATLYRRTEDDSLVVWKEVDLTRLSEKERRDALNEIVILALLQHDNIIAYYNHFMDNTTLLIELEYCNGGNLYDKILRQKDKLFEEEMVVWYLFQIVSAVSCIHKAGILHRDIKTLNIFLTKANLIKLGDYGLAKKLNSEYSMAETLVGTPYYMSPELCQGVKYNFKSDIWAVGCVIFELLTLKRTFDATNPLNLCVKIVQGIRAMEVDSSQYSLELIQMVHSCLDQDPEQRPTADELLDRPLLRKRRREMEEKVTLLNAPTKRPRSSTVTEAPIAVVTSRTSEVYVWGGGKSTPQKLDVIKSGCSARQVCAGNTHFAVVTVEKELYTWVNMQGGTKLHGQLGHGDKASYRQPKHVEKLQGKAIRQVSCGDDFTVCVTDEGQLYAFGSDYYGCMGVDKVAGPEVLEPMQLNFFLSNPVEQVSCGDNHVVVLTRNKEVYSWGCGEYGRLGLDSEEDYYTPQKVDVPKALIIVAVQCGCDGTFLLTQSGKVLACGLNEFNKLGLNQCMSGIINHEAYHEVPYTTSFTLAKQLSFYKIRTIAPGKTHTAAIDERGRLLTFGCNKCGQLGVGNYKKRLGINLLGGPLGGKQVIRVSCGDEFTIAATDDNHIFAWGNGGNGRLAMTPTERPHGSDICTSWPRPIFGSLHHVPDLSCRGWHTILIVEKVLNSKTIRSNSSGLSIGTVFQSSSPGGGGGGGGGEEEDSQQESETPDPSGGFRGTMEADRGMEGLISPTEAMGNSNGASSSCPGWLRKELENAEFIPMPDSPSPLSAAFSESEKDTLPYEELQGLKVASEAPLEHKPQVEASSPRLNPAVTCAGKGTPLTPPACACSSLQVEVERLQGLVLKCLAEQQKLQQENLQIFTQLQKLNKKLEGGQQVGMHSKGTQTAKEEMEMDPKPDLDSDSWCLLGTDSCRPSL
Procedure, shortened: as §1

PTK2B = biological target: T14, PTK2B (Homo sapiens, UniProt Q14289); details: HEK293
T14 construct: purchased Promega (NanoBRET Target Engagement K192 Kinase Selectivity System)
Procedure, shortened: as §1

TIE1 = biological target: T15, TIE1 (Homo sapiens, UniProt P35590); details: HEK293
T15 construct: purchased Promega (NanoBRET Target Engagement K192 Kinase Selectivity System)
Procedure, shortened: as §1

CDK5 + CDK5R1 = biological target: T16, CDK5 + CDK5R1 (Homo sapiens, UniProt Q00535); details: HEK293
T16 construct: purchased Promega (NanoBRET Target Engagement K192 Kinase Selectivity System)
Procedure, shortened: as §1

JAK2 (V617F) = biological target: T17, JAK2 (V617F) (Homo sapiens, UniProt O60674, V617F); details: HEK293
T17 construct: purchased Promega (NanoBRET Target Engagement K192 Kinase Selectivity System)
Procedure, shortened: as §1

NUAK1 = biological target: T18, NUAK1 (Homo sapiens, UniProt O60285); details: HEK293
T18 construct: purchased Promega (NanoBRET Target Engagement K192 Kinase Selectivity System)
Procedure, shortened: as §1

PRKACA = biological target: T19, PRKACA (Homo sapiens, UniProt P17612); details: HEK293
T19 construct: purchased Promega (NanoBRET Target Engagement K192 Kinase Selectivity System)
Procedure, shortened: as §1

CLK2 = biological target: T20, CLK2 (Homo sapiens, UniProt P49760)
T20 construct: expressed in transfected cells; host or cells: HEK293
T20 sequence (P49760 whole entry): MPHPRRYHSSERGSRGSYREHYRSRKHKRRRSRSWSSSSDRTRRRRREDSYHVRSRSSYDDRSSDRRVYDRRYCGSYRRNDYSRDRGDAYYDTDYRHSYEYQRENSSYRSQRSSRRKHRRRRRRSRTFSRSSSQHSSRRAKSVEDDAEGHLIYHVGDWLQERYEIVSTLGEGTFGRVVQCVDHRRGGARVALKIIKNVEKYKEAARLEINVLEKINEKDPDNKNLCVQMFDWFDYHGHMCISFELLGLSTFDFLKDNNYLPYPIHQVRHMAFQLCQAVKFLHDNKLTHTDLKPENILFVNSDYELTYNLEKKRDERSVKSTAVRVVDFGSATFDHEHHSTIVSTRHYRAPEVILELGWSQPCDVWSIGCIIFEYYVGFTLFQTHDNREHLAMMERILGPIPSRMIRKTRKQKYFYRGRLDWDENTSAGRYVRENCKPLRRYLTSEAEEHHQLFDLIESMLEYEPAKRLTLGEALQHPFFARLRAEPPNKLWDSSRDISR
Procedure, shortened: as §1

DCLK3 = biological target: T21, DCLK3 (Homo sapiens, UniProt Q9C098); details: HEK293
T21 construct: purchased Promega (NanoBRET Target Engagement K192 Kinase Selectivity System)
Procedure, shortened: as §1

ERN1 = biological target: T22, ERN1 (Homo sapiens, UniProt O75460); details: HEK293
T22 construct: purchased Promega (NanoBRET Target Engagement K192 Kinase Selectivity System)
Procedure, shortened: as §1

DAPK2 = biological target: T23, DAPK2 (Homo sapiens, UniProt Q9UIK4)
T23 construct: expressed in transfected cells; host or cells: HEK293
T23 sequence (Q9UIK4 whole entry): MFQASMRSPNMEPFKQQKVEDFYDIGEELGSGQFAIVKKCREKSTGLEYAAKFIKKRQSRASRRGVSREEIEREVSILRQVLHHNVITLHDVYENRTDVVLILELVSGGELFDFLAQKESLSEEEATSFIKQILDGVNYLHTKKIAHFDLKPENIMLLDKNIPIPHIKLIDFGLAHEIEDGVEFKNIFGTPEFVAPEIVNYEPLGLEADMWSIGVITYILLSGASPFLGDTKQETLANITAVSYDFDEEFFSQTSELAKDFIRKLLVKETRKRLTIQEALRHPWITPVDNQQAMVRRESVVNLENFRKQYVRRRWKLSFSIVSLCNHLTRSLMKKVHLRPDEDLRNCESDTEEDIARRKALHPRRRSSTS
Procedure, shortened: as §1

NLK = biological target: T24, NLK (Homo sapiens, UniProt Q9UBE8); details: HEK293
T24 construct: purchased Promega (NanoBRET Target Engagement K192 Kinase Selectivity System)
Procedure, shortened: as §1

STK38L = biological target: T25, STK38L (Homo sapiens, UniProt Q9Y2H1); details: HEK293
T25 construct: purchased Promega (NanoBRET Target Engagement K192 Kinase Selectivity System)
Procedure, shortened: as §1

AXL = biological target: T26, AXL (Homo sapiens, UniProt P30530); details: HEK293
T26 construct: host or cells: HEK293
Procedure, shortened: as §1

CHEK2 = biological target: T27, CHEK2 (Homo sapiens, UniProt O96017); details: HEK293
T27 construct: purchased Promega (NanoBRET Target Engagement K192 Kinase Selectivity System)
Procedure, shortened: as §1

CCC(=O)Nc1cc(Nc2cc(NC3CC3)n3ncc(C#N)c3n2)c(F)cc1N1CCC[C@H](NC)C1 [Compound 2, (S)-N-(5-((3-cyano-7-(cyclopropylamino)pyrazolo[1,5-a]pyrimidin-5-yl)amino)-4-fluoro-2-(3-(methylamino)piperidin-1-yl)phenyl)propionamide] was tested, and the receptor occupancy at 10 µM (CDK2 + E1) was 15.9%, the receptor occupancy at 10 µM (MAP3K11) was 19.5% and the receptor occupancy at 10 µM (STK11) was 0.1%. The receptor occupancy at 10 µM (CAMK2A) was 12.4%, the receptor occupancy at 10 µM (IRAK4) was 9.2% and the receptor occupancy at 10 µM (MERTK) was 4.2%. It also gave a receptor occupancy at 10 µM (DYRK1B) of 38.3%, a receptor occupancy at 10 µM (IGF1R) of -2.6% and a receptor occupancy at 10 µM (ICK) of -6.1%. The receptor occupancy at 10 µM (ULK3v1) was -7.4%, the receptor occupancy at 10 µM (HIPK3) was 25.5% and the receptor occupancy at 10 µM (CDK10 + L2) was 13.6%. It also gave a receptor occupancy at 10 µM (NEK9) of 1%, a receptor occupancy at 10 µM (PTK2B) of -1.6% and a receptor occupancy at 10 µM (TIE1) of 20.6%. The receptor occupancy at 10 µM (CDK5 + CDK5R1) was 10.8%, the receptor occupancy at 10 µM (JAK2 (V617F)) was 13.1% and the receptor occupancy at 10 µM (NUAK1) was -1.7%. The receptor occupancy at 10 µM (PRKACA) was 11.7%, the “% occupancy at 10 μM” value (CLK2; CLK2, HEK293) was 85% and the receptor occupancy at 10 µM (CLK2; HEK293, CLK2) was 84.8%. For the same compound, the receptor occupancy at 10 µM (DCLK3) was 44.7%, the receptor occupancy at 10 µM (ERN1) was 3% and the “% occupancy at 10 μM” value (DAPK2; DAPK2, HEK293) was 72%. The receptor occupancy at 10 µM (DAPK2; HEK293, DAPK2) was 72.1%, the receptor occupancy at 10 µM (NLK) was 11.9% and the receptor occupancy at 10 µM (STK38L) was 4%. The receptor occupancy at 10 µM (AXL) was -9.2% and the receptor occupancy at 10 µM (CHEK2) was -0.8%.
